Literature values, collected in patent US20050009848A1, “Use of antivirals against inflammatory bowel diseases” (ICN Pharmaceuticals Switzerland Ltd., priority 2003, published 2005).

Settings: one patient with Crohn's disease, HSV-I and HSV-II DNA detected in intestinal mucosa; acyclovir co-used with classical mesalazin-corticosteroid therapy

Nc1nc2c(ncn2COCCO)c(=O)[nH]1 [acyclovir]
morphological and clinical findings: changed the morphological and clinical findings decisively
